# What was measured:
# [1] = cited from earlier work
# rat heart tissue = test: GENECALLING differential gene expression analysis after dosing of serotonin modulating agents; assay type: in vivo, Sprague Dawley rats
# In short: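 GENECALLING profiling of cDNA from total RNA, keeping gene fragments modulated beyond ±1.5-fold. Tissue collected 24 h after final dosing of serotonin modulating agents; control rats received sterile water or canola oil.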
structure (smiles),measurement,setting,value
CCNC(C)Cc1cccc(C(F)(F)F)c1 (stereo not shown) [fenfluramine],classification as cardiotoxic or noncardiotoxic serotonin modulating agent,[1]; grouping used to generate the distinguishing gene profiles,cardiotoxic
same,side effect reported in a subset of patients,[1]; patients to which they are administered,valvular heart disease
same,"Effects on Transcription Level: Novel gene fragment, 524 bp, 86% SI to mouse F-box protein FBX6b [AF176526]",rat heart tissue; CARDIOTOX 1,+1.4 fold
same,"Effects on Transcription Level: Novel gene fragment, 306 bp, 91% SI to mouse low density lipoprotein receptor related protein 4 [AB013874]",rat heart tissue; CARDIOTOX 2,−1.1 fold
same,"Effects on Transcription Level: Novel gene fragment, 540 bp, 97% SI to mouse skeletal muscle alpha-actin [X03766]",rat heart tissue; CARDIOTOX 3,+1.3 fold
same,"Effects on Transcription Level: Novel gene fragment, 80 bp",rat heart tissue; CARDIOTOX 4,−1.1 fold
same,"Effects on Transcription Level: Novel gene fragment, 957 bp, 99% SI to kidney injury associated moleculer HW036 [V80591]",rat heart tissue; CARDIOTOX 5,−1.4 fold
same,"Effects on Transcription Level: Novel gene fragment, 282 bp, 85% SI to human KIAA1515 protein [AB040948]",rat heart tissue; CARDIOTOX 6,−1.3 fold
same,"Effects on Transcription Level: Novel gene fragment, 405 bp, 88% SI to human 2-oxoglutarate dehydrogenase [D10523]",rat heart tissue; CARDIOTOX 7,+1.4 fold
same,Effects on Transcription Level: UCP2,"rat heart tissue; CARDIOTOX 8, GenBank AB010743",−1.3 fold
same,Effects on Transcription Level: Plasma membrane Ca2 + ATPase-isoform 1,"rat heart tissue; CARDIOTOX 9, GenBank J03753",−1.3 fold
same,"Effects on Transcription Level: Novel gene fragment, 242 bp, 97% SI to mouse HSP86 heat-shock protein [X16857]",rat heart tissue; CARDIOTOX 10,+1.6 fold
same,"Effects on Transcription Level: Novel gene fragment, 280 bp, 65% SI to human TRF1-interacting, ankyrin-related ADP-ribose polymerase [AF082556]",rat heart tissue; CARDIOTOX 11,+1.6 fold
same,"Effects on Transcription Level: Novel gene fragment, 348 bp, 88% SI to mouse Sec61 protein complex gamma subunit [U11027]",rat heart tissue; CARDIOTOX 12,+1.6 fold
same,"Effects on Transcription Level: Novel gene fragment 553 bp, 93% SI to mouse Sid329 [AB024984]",rat heart tissue; CARDIOTOX 13,+1.5 fold
same,Effects on Transcription Level: Kruppel-like transcription factor,"rat heart tissue; CARDIOTOX 14, GenBank AB020759",+1.7 fold
same,Effects on Transcription Level: Ribosomal protein L3,"rat heart tissue; CARDIOTOX 15, GenBank X62166",+2.3 fold
same,Effects on Transcription Level: Glucose-regulated protein (GRP) 75,"rat heart tissue; CARDIOTOX 16, GenBank S78556",+1.5 fold
same,Effects on Transcription Level: Immunoglobulin heavy chain binding protein (BiP),"rat heart tissue; CARDIOTOX 17, GenBank M14050",+2.0 fold
same,Effects on Transcription Level: Membrane-spannining proteoglycan NG2,"rat heart tissue; CARDIOTOX 18, GenBank X56541",−1.5 fold
same,"Effects on Transcription Level: Novel gene fragment, 1294 bp, 96% SI to mouse Sui 1 (elF) homolog [AF129888]",rat heart tissue; CARDIOTOX 19,+1.6 fold
same,"Effects on Transcription Level: Novel gene fragment, 723 bp, 85% SI to human translation initiation factor elF3 p40 subunit [U54559]",rat heart tissue; CARDIOTOX 20,+1.5 fold
same,"Effects on Transcription Level: Novel gene fragment, 1324 bp, 76% SI to human flavoprotein subunit of complex II [D30648]",rat heart tissue; CARDIOTOX 21,+1.5 fold
same,"Effects on Transcription Level: Novel gene fragment, 852 bp, 81% SI to human vacuolar proton-ATPase subunit M9.2 [Y15286]",rat heart tissue; CARDIOTOX 22,+1.6 fold
same,"Effects on Transcription Level: Novel gene fragment, 178 bp, 91% SI to mouse myosin light chain-2 isoform MLC-2a [S70785]",rat heart tissue; CARDIOTOX 23,+1.5 fold
same,"Effects on Transcription Level: Novel gene fragment, 167 bp, 90% SI to mouse Rab20 [X80332]",rat heart tissue; CARDIOTOX 24,+1.8 fold
same,"Effects on Transcription Level: Novel gene fragment, 1070 bp, 80% SI to human muscle-specific protein [AF249873]",rat heart tissue; CARDIOTOX 25,+1.7 fold
same,"Effects on Transcription Level: Novel gene fragment, 1143 bp, 82% SI to human sarcoma amplified sequence (SAS) [U01160]",rat heart tissue; CARDIOTOX 26,+1.8 fold
same,"Effects on Transcription Level: Novel gene fragment, 74 bp,75% SI to human secreted protein [X30160] (from patent database)/[X97578] (from patent database)/potential cytokine)",rat heart tissue; CARDIOTOX 27,+1.6 fold
same,"Effects on Transcription Level: Novel gene fragment, 408 bp, 90% SI to human CGI-07 protein [AF132941]",rat heart tissue; CARDIOTOX 28,+1.6 fold
same,"Effects on Transcription Level: Novel gene fragment, 618 bp, 95% SI to rat progression related cDNA, ZNPE-120 3′ end partial sequence [patent database X90805]",rat heart tissue; CARDIOTOX 29,+1.6 fold
same,"Effects on Transcription Level: Novel gene fragment, 717 bp",rat heart tissue; CARDIOTOX 30,+1.6 fold
same,"Effects on Transcription Level: Novel gene fragment, 546 bp",rat heart tissue; CARDIOTOX 31,+1.5 fold
same,"Effects on Transcription Level: Novel gene fragment, 920 bp, 91% SI to human HSPC061 [AF161546]",rat heart tissue; CARDIOTOX 32,+1.5 fold
same,"Effects on Transcription Level: Novel gene fragment, 203 bp, 92% SI to rabbit sarcoplasmic reticulum glycoprotein [J04480]",rat heart tissue; CARDIOTOX 33,−1.7 fold
same,"Effects on Transcription Level: Novel gene fragment, 178 bp, 68% SI to mouse IgG receptor (beta-Fc-gamma-RII)[M63159]",rat heart tissue; CARDIOTOX 34,+1.5 fold
same,Effects on Transcription Level: Ribosomal protein L6,"rat heart tissue; CARDIOTOX 35, GenBank X87107",+1.5 fold
same,Effects on Transcription Level: CAP2 protein (adenylyl cyclase-associated protein 2),"rat heart tissue; CARDIOTOX 36, GenBank U31935",+2.0 fold
same,Effects on Transcription Level: Alpha-platelet-derived growth factor receptor,"rat heart tissue; CARDIOTOX 37, GenBank M63837",+1.5 fold
same,Effects on Transcription Level: Rab GD1 alpha protein,"rat heart tissue; CARDIOTOX 38, GenBank X74402",−1.5 fold
same,Effects on Transcription Level: PKC-zeta-interacting protein,"rat heart tissue; CARDIOTOX 39, GenBank Y08355",+1.5 fold
same,Effects on Transcription Level: ERK or MAP kinase,"rat heart tissue; CARDIOTOX 40, GenBank X65198",+1.5 fold
same,Effects on Transcription Level: Peroxisomal multifunctional enzyme type II,"rat heart tissue; CARDIOTOX 41, GenBank U37486",+1.5 fold
same,Effects on Transcription Level: HBP23 (heme-binding protein 23 kDa),"rat heart tissue; CARDIOTOX 42, GenBank D30035",+1.6 fold
same,Effects on Transcription Level: Caveolae-associated protein,"rat heart tissue; CARDIOTOX 43, GenBank U90725",+1.5 fold
same,Effects on Transcription Level: Prenylated rab acceptor 1 (PRA1),"rat heart tissue; CARDIOTOX 44, GenBank AF025506",+1.6 fold
same,"Effects on Transcription Level: Novel gene fragment, 337 bp, 88% SI to rabbit cardiac ryanodine receptor (RyR-2)[U50465]",rat heart tissue; CARDIOTOX 45,−1.6 fold
same,"Effects on Transcription Level: Novel gene fragment, 81 bp, 85% SI to human titin [X90568]",rat heart tissue; CARDIOTOX 46,−1.8 fold
same,"Effects on Transcription Level: Novel gene fragment, 428 bp, 86% SI to human titin [X90568]",rat heart tissue; CARDIOTOX 47,−1.8 fold
same,"Effects on Transcription Level: Novel gene fragment, 374 bp, 88% SI to human titin [X90568]",rat heart tissue; CARDIOTOX 48,−1.8 fold
same,"Effects on Transcription Level: Novel gene fragment, 428 bp, 85% SI to human titin [90568]",rat heart tissue; CARDIOTOX 49,−1.9 fold
same,"Effects on Transcription Level: Novel gene fragment, 1216 bp, 93% SI to mouse mircotubule-associated protein (MAP) 1B protein [AF115776]",rat heart tissue; CARDIOTOX 50,−1.7 fold
same,"Effects on Transcription Level: Novel gene fragment, 1115 bp, 83% SI to human KIAA0549 protein [AB011121]",rat heart tissue; CARDIOTOX 51,−1.8 fold
same,"Effects on Transcription Level: Novel gene fragment, 153 bp",rat heart tissue; CARDIOTOX 52,−1.7 fold
same,"Effects on Transcription Level: Novel gene fragment, 89 bp, 93% SI to human putative glialblastoma cell differentiation-related protein (GBDR1) [AF068195]",rat heart tissue; CARDIOTOX 53,−1.6 fold
same,Effects on Transcription Level: Rho-associated kinase beta,"rat heart tissue; CARDIOTOX 54, GenBank U61266",−1.8 fold
same,Effects on Transcription Level: Adenylate kinase 3,"rat heart tissue; CARDIOTOX 55, GenBank D13062",+1.6 fold
same,Effects on Transcription Level: Amyloid beta-peptide binding protein,"rat heart tissue; CARDIOTOX 56, GenBank AF049878",+1.6 fold
same,Effects on Transcription Level: Mitochondrial adenine nuleotide translocator,"rat heart tissue; CARDIOTOX 57, GenBank D12771",+1.6 fold
same,"Effects on Transcription Level: Novel gene fragment, 710 bp, 94% SI to mouse chromatin structural protein homolog Supt5 hp (Supt5 h)[U88539]",rat heart tissue; CARDIOTOX 58,+3.4 fold
same,"Effects on Transcription Level: Novel gene fragment, 186 bp, 66% SI to human N-acetylglucosaminyltransferase 1 (GlcNAc-TI)[M55621]",rat heart tissue; CARDIOTOX 60,−3.0 fold
same,"Effects on Transcription Level: Novel gene fragment, 238 bp, 95% SI to mouse MAP kinase-activated protein kinase 2 [X76850]",rat heart tissue; CARDIOTOX 61,−2.4 fold
same,"Effects on Transcription Level: Novel gene fragment, 173 bp, 70% SI to G protein-coupled receptor kinase GRK4 [X97568]",rat heart tissue; CARDIOTOX 62,−6.6 fold
same,"Effects on Transcription Level: Novel gene fragment, 133 bp, 77% SI to human apoptosis related protein hSARP3 [patent database: V19114]",rat heart tissue; CARDIOTOX 63,−3.1 fold
same,"Effects on Transcription Level: Novel gene fragment, 477 bp, 98% SI to peroxisomal phytanoyl-CoA hydroxylase (PHYH) [AF121345]",rat heart tissue; CARDIOTOX 64,+4.8 fold
same,"Effects on Transcription Level: Novel gene fragment, 413 bp, 95% SI to mouse dihydrolipoamide dehydrogenase (Dld) [U73445]",rat heart tissue; CARDIOTOX 65,+2.3 fold
same,"Effects on Transcription Level: Novel gene fragment, 726 bp, 76% SI to human succinate dehydrogenase flavoprotein subunit (SDH) [L21936]",rat heart tissue; CARDIOTOX 66,−4.0 fold
same,"Effects on Transcription Level: Novel gene fragment, 440 bp, 92% SI to mouse cytochrome c oxidase Vllc [X52940]",rat heart tissue; CARDIOTOX 67,+4.0 fold
same,"Effects on Transcription Level: Novel gene fragment, 276 bp, 80% SI to human titin [X90568]",rat heart tissue; CARDIOTOX 68,−12.7 fold
same,"Effects on Transcription Level: Novel gene fragment, 149 bp, 70% SI to human titin [X90568]",rat heart tissue; CARDIOTOX 69,−5.6 fold
